Experiments:
[1] = biological target: T1, 5-hydroxytryptamine receptor 1F (Homo sapiens) (UniProt P30939); test: In vitro agonist potency against human 5-hydroxytryptamine 1F receptor; type: functional
T1 sequence (whole entry): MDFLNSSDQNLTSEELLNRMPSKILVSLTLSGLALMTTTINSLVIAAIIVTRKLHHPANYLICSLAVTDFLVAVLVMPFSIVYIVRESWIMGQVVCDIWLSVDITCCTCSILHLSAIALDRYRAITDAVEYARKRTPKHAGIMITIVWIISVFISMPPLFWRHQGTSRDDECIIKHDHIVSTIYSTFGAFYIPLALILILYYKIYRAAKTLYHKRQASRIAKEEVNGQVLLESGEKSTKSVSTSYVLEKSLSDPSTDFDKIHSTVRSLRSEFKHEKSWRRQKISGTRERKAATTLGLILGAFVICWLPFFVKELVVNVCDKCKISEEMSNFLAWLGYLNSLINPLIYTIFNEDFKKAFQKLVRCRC

[2] = biological target: T2, 5-hydroxytryptamine receptor 1F (Homo sapiens, UniProt P30939); test: Binding affinity towards human 5-hydroxytryptamine 1F receptor
T2 sequence (P30939 whole entry): T1 sequence (whole entry)

[3] = Selectivity is the binding affinity towards human 5-HT1A receptor to that of human 5-HT1F receptor
[4] = Selectivity is the binding affinity towards human 5-HT1B receptor to that of human 5-HT1F receptor
[5] = Selectivity is the binding affinity towards human 5-HT1D receptor to that of human 5-HT1F receptor

Compound: CNS(=O)(=O)Cc1ccc2[nH]cc(CCN(C)C)c2c1
- Emax [1]: 98%

Compound: CN(C)CCc1c[nH]c2cccc(NC(=O)c3ccc(F)cc3)c12
- Ki [2]: 3.8 nM
- Selectivity [3]: 3
- Selectivity [4]: 9
- Selectivity [5]: 3

From ChEMBL document CHEMBL1134277, “N-[3-(2-Dimethylaminoethyl)-2-methyl-1H- indol-5-yl]-4-fluorobenzamide: a potent, selective, and orally active 5-HT(1F) receptor agonist potentially useful for migraine therapy” (J Med Chem, 2001)
